{"source": "patent US8450379B2", "about": "“Methods for treating migraine” (Corcept Therapeutics, Inc., priority 2002, dated 2013)", "origin": "cited, not measured here", "key": {"progesterone receptors": {"biological_target": "T1, progesterone receptors (Homo sapiens, UniProt P06401)", "T1 sequence (P06401 1-933)": "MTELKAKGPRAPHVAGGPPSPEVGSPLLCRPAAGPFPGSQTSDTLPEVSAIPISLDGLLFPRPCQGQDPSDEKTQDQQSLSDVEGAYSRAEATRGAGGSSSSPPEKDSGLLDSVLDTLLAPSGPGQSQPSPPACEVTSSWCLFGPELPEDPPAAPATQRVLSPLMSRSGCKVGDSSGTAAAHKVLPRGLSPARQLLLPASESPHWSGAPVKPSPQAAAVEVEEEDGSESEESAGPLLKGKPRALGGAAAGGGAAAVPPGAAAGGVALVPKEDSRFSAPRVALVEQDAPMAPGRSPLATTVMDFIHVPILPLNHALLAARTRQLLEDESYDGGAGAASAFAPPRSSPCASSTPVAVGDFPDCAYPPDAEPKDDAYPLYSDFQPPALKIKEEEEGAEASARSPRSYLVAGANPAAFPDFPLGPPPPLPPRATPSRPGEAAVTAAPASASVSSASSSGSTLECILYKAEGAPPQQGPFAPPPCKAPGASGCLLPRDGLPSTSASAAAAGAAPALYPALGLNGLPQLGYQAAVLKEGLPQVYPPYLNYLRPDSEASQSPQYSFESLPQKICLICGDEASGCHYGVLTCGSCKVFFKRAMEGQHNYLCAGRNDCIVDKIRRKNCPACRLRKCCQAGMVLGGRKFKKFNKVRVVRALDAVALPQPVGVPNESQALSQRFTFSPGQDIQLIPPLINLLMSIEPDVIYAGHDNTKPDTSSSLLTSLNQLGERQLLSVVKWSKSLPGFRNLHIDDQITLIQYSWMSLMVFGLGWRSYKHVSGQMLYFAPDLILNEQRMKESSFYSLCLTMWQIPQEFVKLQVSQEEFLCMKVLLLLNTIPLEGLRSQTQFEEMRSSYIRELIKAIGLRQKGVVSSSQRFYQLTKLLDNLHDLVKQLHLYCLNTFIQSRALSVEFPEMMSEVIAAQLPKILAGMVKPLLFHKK"}, "[1]": {"biological_target": "T2, glucocorticoid (GR) receptors (Homo sapiens, UniProt P04150)", "T2 sequence (P04150 1-777)": "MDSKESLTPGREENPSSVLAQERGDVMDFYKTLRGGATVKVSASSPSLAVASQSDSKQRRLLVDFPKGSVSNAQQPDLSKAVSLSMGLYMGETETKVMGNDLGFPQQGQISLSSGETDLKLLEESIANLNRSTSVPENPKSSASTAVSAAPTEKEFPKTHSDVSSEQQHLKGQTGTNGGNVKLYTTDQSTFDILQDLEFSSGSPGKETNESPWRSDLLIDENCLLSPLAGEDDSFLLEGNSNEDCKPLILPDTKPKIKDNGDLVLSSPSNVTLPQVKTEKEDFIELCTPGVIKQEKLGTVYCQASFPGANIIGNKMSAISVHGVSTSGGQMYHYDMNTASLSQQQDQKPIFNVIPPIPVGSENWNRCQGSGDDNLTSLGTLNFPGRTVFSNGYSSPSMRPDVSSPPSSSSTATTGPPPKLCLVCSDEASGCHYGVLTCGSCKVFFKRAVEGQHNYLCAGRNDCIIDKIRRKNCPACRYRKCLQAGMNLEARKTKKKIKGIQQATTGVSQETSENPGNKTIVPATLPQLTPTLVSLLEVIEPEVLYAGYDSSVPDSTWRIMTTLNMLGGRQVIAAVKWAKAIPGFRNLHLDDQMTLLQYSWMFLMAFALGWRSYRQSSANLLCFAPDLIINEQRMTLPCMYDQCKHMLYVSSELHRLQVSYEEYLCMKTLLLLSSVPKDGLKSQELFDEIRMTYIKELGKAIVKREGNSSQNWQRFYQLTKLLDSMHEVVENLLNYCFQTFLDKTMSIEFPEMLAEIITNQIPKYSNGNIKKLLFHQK"}, "[2]": {"details": "one study (Kawai)"}, "[3]": {"biological_target": "T3, Mineralocorticoid receptors (MRs) (Homo sapiens, UniProt P08235)", "T3 sequence (P08235 1-984)": "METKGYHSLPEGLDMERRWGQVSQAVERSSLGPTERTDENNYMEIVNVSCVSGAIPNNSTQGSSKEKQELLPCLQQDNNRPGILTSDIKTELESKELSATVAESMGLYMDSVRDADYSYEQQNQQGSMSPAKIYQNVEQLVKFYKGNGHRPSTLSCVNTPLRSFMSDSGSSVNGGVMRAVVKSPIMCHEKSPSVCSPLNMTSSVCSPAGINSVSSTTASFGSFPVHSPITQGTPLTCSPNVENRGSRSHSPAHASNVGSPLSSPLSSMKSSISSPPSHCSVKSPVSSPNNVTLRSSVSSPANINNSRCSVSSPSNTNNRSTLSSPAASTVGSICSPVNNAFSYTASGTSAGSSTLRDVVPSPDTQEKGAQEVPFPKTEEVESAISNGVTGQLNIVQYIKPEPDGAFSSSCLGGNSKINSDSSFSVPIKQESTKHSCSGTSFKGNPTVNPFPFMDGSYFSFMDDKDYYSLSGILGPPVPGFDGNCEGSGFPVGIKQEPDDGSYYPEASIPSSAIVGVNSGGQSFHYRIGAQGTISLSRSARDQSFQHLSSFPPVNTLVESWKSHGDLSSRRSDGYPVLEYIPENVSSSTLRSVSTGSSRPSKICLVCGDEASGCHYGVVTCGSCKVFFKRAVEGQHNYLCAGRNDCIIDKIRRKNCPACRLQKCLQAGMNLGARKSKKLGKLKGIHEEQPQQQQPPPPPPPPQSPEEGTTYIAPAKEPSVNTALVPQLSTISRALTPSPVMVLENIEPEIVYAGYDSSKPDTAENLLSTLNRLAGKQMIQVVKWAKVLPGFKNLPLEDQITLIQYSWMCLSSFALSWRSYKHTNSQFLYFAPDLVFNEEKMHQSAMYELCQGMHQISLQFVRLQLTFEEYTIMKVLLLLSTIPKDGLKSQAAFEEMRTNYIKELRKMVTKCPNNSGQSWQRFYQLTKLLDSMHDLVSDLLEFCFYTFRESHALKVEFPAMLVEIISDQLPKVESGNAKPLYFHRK", "details": "MR versus GR"}}}
{"smiles": "CC#C[C@]1(O)CC[C@H]2[C@@H]3CCC4=CC(=O)CCC4=C3[C@@H](c3ccc(N(C)C)cc3)C[C@@]21C", "note": "[Mifepristone, (11β,17β) 11[4 (dimethylamino)phenyl]-17 hydroxy-17 (1 propynyl)estra-4,9 dien-3 one]", "values": [{"measurement": "antagonism of progesterone receptor", "setting": "progesterone receptors", "result": "powerful antagonist"}, {"measurement": "antagonism of glucocorticoid (GR) receptor", "setting": "[1]", "result": "powerful antagonist"}, {"measurement": "fraction of the daily dose excreted in the urine", "setting": "[2]", "result": "less than 0.5 % of the daily dose"}]}
{"smiles": "CC#C[C@]1(O)CC[C@H]2[C@@H]3CCC4=CC(=O)CCC4=C3[C@@H](c3ccc(OCCN(C)C)cc3)C[C@@]21C", "note": "[RU009, 11β-(4-dimethylaminoethoxyphenyl)-17α-propynyl-17β-hydroxy-4,9-estradien-3-one]", "values": [{"measurement": "antagonism of glucocorticoid (GR) receptor", "setting": "[1]", "result": "GR antagonist effects"}]}
{"smiles": "C[C@]12CCC(=O)C=C1CC[C@@H]1[C@@H]2[C@@H](O)C[C@@]2(C)[C@H]1CC[C@]2(O)C(=O)CO", "note": "[cortisol]", "values": [{"measurement": "affinity of MR for cortisol relative to GR binding of glucocorticoids", "setting": "[3]", "result": "ten-fold higher affinity"}]}
